In US20140322315A1, “CYSTEAMINE AND/OR CYSTAMINE FOR TREATING ISCHEMIC INJURY” (The Regents of the University of California, priority 2011, published 2014):

Test system: adiponectin
Experiment: Serum total and multimeric adiponectin in subjects with NAFLD treated 24 weeks with EC-cysteamine
Format: in vivo, human
Source text: Eleven children ≧10 years, with biopsy-proven NAFLD and an alanine aminotransferase (ALT) level ≧60 IU/L, were enrolled. They were either newly diagnosed or had not received specific therapy for NAFLD such as vitamin E or insulin-sensitizing drugs for at least 3 months before entering the study. All had undertaken standard of care lifestyle changes involving diet and exercise for more than 3 months. The study's primary outcome measure was normalization (≦40 IU/L) or 50% reduction in baseline serum ALT at 24 weeks of EC-cysteamine therapy; these subjects were deemed responders.
Subjects were treated for 24 wks and remained monitored for 24 weeks following its discontinuation. The mean EC-cysteamine dose ingested was 654 mg twice daily or 15.2 mg/kg/day (median dose 900 mg) for 24 wks.
During the pilot study blood was collected at pre-defined intervals. Serum was stored at −80° C. until time of assay. Adequate serum volumes were available in 10 of the 11 subjects with NAFLD and only up to 16 weeks post-treatment.
Total and multimeric adiponectin levels were measured in serum taken from: (1) subject with NAFLD collected at 0 and 24 wks of cysteamine therapy and again 16 wks after stopping therapy (i.e., 40 weeks); (2) pretreated 0-week subjects with NAFLD and adults without NAFLD at room temperature and at 37° C. and also after incubation with cysteamine 90 μM for 1 hour at 37° C.; and (3) pretreated 0-week subjects with NAFLD before and after incubation with cysteamine at varying concentrations (15, 30, 45, 60, 90, 120 μM) for 1 hour at 37° C. to establish dose-response profile.
Sodium dodecyl sulfate polyacrylamide gel electrophoresis (SDS-PAGE) was performed according to standard Laemmli's method. Sample buffer for non-reducing, non-heat denaturing conditions contained 3% SDS; 50 mmol/1 Tris-HCL, pH 6.8 and 20% glycerol. Proteins were separated using 3-8% Tris-Acetate Gels (Invitrogen, Carlsbad Calif.) with Tris-Acetate running buffer per manufacturer instructions. For immunoblotting, proteins were transferred to nitrocellulose membranes. Membranes were washed with Tween (Tris-buffered Saline, 0.1% […]) and incubated with monoclonal antibody (1:500 BD Transduction Laboratories, San Diego, Calif.). After washing with Tris-buffered saline with 0.1% Tween (4×5 min) membranes were incubated with L-COR secondary antibodies (LI-COR Biotechnology, Lincoln Nebr.) at 1:20,000. Adiponectin multimers were detected and quantified using the LICOR imager and software analysis program. Relative distribution of adiponectin multimers was determined by dividing band density by total density (cellular adiponectin) or by total adiponectin as determined by ELISA (Millipore, Billerica, Mass.). The percentage of adionectin multimer was then multiplied by the total adiponectin level to calculate absolute oligomer value.

[1] = after discontinuing therapy at 24 weeks, P=0.01

What does the source list for `NCCS.O=C(O)C(O)C(O)C(=O)O` (stereo not shown) [cysteamine bitartrate, Cysteamine bitartrate]?
mean percent change of HMW adiponectin from baseline (7 responders, 24 weeks): 87.7%; mean percent change of LMW adiponectin from baseline (7 responders, 24 weeks): 33.9%; mean percent change of MMW adiponectin from baseline (7 responders, 24 weeks): 13.7%; mean percent change of total adiponectin from baseline (7 responders, 24 weeks): 57.5%; all adiponectin multimer levels, difference from baseline (40-week timepoint (16 weeks off therapy)): ≤ 2%; LMW adiponectin change between 24-week and 40-week timepoints (after discontinuing therapy at 24 weeks, P=0.009): significant mean percent reduction; MMW adiponectin change between 24-week and 40-week timepoints [1]: significant mean percent reduction; total adiponectin change between 24-week and 40-week timepoints [1]: significant mean percent reduction; HMW adiponectin change between 24-week and 40-week timepoints (after discontinuing therapy at 24 weeks, P=0.02): significant mean percent reduction; mean percent increase of total adiponectin from baseline (all subjects, 0-24 weeks oral EC-cysteamine, P=0.05): 49.3%; mean percent increase of HMW adiponectin from baseline (all subjects, 24 weeks oral EC-cysteamine (15.2 mg/kg/day), P=0.02): 53%; mean percent increase of MMW adiponectin from baseline (all subjects, 24 weeks oral EC-cysteamine, P=0.02): 19%; mean percent increase of LMW adiponectin from baseline (all subjects, 24 weeks oral EC-cysteamine, P=0.03): 29.4%
